Results: ChEMBL document CHEMBL4152249, “Alkoxyphenylthiazoles with broad-spectrum activity against multidrug-resistant gram-positive bacterial pathogens” (Eur J Med Chem, 2018)
Values after ≈ are worked out from the molar mass of the structure shown.

Legend:
Staphylococcus aureus [1] = assay: Antibacterial activity against methicillin-resistant Staphylococcus aureus 2658 RCMB after 20 hrs by broth microdilution assay; format: functional
Enterococcus faecium [2] = assay: Antibacterial activity against vancomycin-resistant Enterococcus faecium ATCC 700221 after 20 hrs by broth microdilution assay; format: functional; conditions: ATCC 700221, 20 h
Enterococcus faecium [3] = assay: Bactericidal activity against vancomycin-resistant Enterococcus faecium ATCC 700221 incubated for 20 hrs followed by re-plating on tryptic soy agar plates at 37 degC for 18 hrs by broth microdilution assay; format: functional
Staphylococcus aureus [4] = assay: Bactericidal activity against linezolid-resistant Staphylococcus aureus NRS119 incubated for 20 hrs followed by re-plating on tryptic soy agar plates at 37 degC for 18 hrs by broth microdilution assay; format: functional
Staphylococcus aureus [5] = assay: Bactericidal activity against vancomycin-resistant Staphylococcus aureus VRSA12 incubated for 20 hrs followed by re-plating on tryptic soy agar plates at 37 degC for 18 hrs by broth microdilution assay; format: functional
Staphylococcus aureus [6] = assay: Bactericidal activity against methicillin-sensitive Staphylococcus aureus NRS107 incubated for 20 hrs followed by re-plating on tryptic soy agar plates at 37 degC for 18 hrs by broth microdilution assay; format: functional
Staphylococcus aureus [7] = assay: Bactericidal activity against methicillin-resistant Staphylococcus aureus NRS386 incubated for 20 hrs followed by re-plating on tryptic soy agar plates at 37 degC for 18 hrs by broth microdilution assay; format: functional
Streptococcus pneumoniae [8] = assay: Antibacterial activity against methicillin-resistant Streptococcus pneumoniae ATCC 700677 after 20 hrs by broth microdilution assay; format: functional; conditions: ATCC 700677, 20 h
Staphylococcus aureus [9] = assay: Antibacterial activity against vancomycin-resistant Staphylococcus aureus VRSA10 after 20 hrs by broth microdilution assay; format: functional; conditions: VRSA10, 20 h
Enterococcus faecalis [10] = assay: Antibacterial activity against vancomycin-resistant Enterococcus faecalis ATCC 51299 after 20 hrs by broth microdilution assay; format: functional; conditions: ATCC 51299, 20 h
Staphylococcus aureus [11] = assay: Antibacterial activity against vancomycin-resistant Staphylococcus aureus VRSA12 after 20 hrs by broth microdilution assay; format: functional; conditions: VRSA12, 20 h
Staphylococcus aureus [12] = assay: Bactericidal activity against methicillin-resistant Staphylococcus aureus NRS385 incubated for 20 hrs followed by re-plating on tryptic soy agar plates at 37 degC for 18 hrs by broth microdilution assay; format: functional
Enterococcus faecalis [13] = assay: Bactericidal activity against vancomycin-resistant Enterococcus faecalis ATCC 51299 incubated for 20 hrs followed by re-plating on tryptic soy agar plates at 37 degC for 18 hrs by broth microdilution assay; format: functional
Staphylococcus aureus [14] = assay: Bactericidal activity against vancomycin-resistant Staphylococcus aureus VRSA10 incubated for 20 hrs followed by re-plating on tryptic soy agar plates at 37 degC for 18 hrs by broth microdilution assay; format: functional
Staphylococcus aureus [15] = assay: Bactericidal activity against Staphylococcus aureus USA400 NRS123 incubated for 20 hrs followed by re-plating on tryptic soy agar plates at 37 degC for 18 hrs by broth microdilution assay; format: functional
Listeria monocytogenes [16] = assay: Antibacterial activity against Listeria monocytogenes ATCC 19111 after 20 hrs by broth microdilution assay; format: functional; conditions: ATCC 19111, 20 h
Staphylococcus aureus [17] = assay: Bactericidal activity against Staphylococcus aureus USA300 NRS384 incubated for 20 hrs followed by re-plating on tryptic soy agar plates at 37 degC for 18 hrs by broth microdilution assay; format: functional
Streptococcus pneumoniae [18] = assay: Antibacterial activity against cephalosporin-resistant Streptococcus pneumoniae ATCC 51916 after 20 hrs by broth microdilution assay; format: functional; conditions: ATCC 51916, 20 h
Streptococcus pneumoniae [19] = assay: Bactericidal activity against cephalosporin-resistant Streptococcus pneumoniae ATCC 51916 incubated for 20 hrs followed by re-plating on tryptic soy agar plates at 37 degC for 18 hrs by broth microdilution assay; format: functional
Staphylococcus aureus [20] = assay: Antibacterial activity against methicillin-resistant Staphylococcus aureus NRS386 after 20 hrs by broth microdilution assay; format: functional; conditions: NRS386, 20 h
Staphylococcus aureus [21] = assay: Antibacterial activity against methicillin-resistant Staphylococcus aureus after 20 hrs by broth microdilution assay; format: functional
[22] = tested on: Staphylococcus epidermidis; assay: Antibacterial activity against methicillin-resistant Staphylococcus epidermidis NRS101 after 20 hrs by broth microdilution assay; format: functional; conditions: NRS101, 20 h
Staphylococcus aureus [23] = assay: Antibacterial activity against methicillin-resistant Staphylococcus aureus NRS385 after 20 hrs by broth microdilution assay; format: functional; conditions: NRS385, 20 h
Caco-2 = assay: Cytotoxicity against human Caco2 cells assessed as effect on cell viability up to 64 ug/ml after 2 hrs by MTS assay; format: cell-based; conditions: caco-2, 2 h
Listeria monocytogenes [24] = assay: Bactericidal activity against Listeria monocytogenes ATCC 19111 incubated for 20 hrs followed by re-plating on tryptic soy agar plates at 37 degC for 18 hrs by broth microdilution assay; format: functional
Staphylococcus aureus [25] = assay: Antibacterial activity against Staphylococcus aureus after 20 hrs by broth microdilution assay; format: functional
[26] = tested on: Staphylococcus epidermidis; assay: Bactericidal activity against methicillin-resistant Staphylococcus epidermidis NRS101 incubated for 20 hrs followed by re-plating on tryptic soy agar plates at 37 degC for 18 hrs by broth microdilution assay; format: functional
Streptococcus pneumoniae [27] = assay: Bactericidal activity against methicillin-resistant Streptococcus pneumoniae ATCC 700677 incubated for 20 hrs followed by re-plating on tryptic soy agar plates at 37 degC for 18 hrs by broth microdilution assay; format: functional

SMILES	MIC (Staphylococcus aureus [1])	MIC (Enterococcus faecium [2])	MBC (Enterococcus faecium [3])	MBC (Staphylococcus aureus [4])	MBC (Staphylococcus aureus [5])	MBC (Staphylococcus aureus [6])	MBC (Staphylococcus aureus [7])	MIC (Streptococcus pneumoniae [8])	MIC (Staphylococcus aureus [9])	MIC (Enterococcus faecalis [10])	MIC (Staphylococcus aureus [11])	MBC (Staphylococcus aureus [12])	MBC (Enterococcus faecalis [13])	MBC (Staphylococcus aureus [14])	MBC (Staphylococcus aureus [15])	MIC (Listeria monocytogenes [16])	MBC (Staphylococcus aureus [17])	MIC (Streptococcus pneumoniae [18])	also measured
CCCCCCCOc1ccc(-c2nc(C)c(-c3ccnc(NC)n3)s2)cc1	> 50 µg/mL	–	–	–	–	–	–	–	–	–	–	–	–	–	–	–	–	–	–
CN[C@H](CC(C)C)C(=O)N[C@H]1C(=O)N[C@@H](CC(N)=O)C(=O)N[C@H]2C(=O)N[C@H]3C(=O)N[C@H](C(=O)N[C@H](C(=O)O)c4cc(O)cc(O)c4-c4cc3ccc4O)[C@H](O)c3ccc(c(Cl)c3)Oc3cc2cc(c3O[C@@H]2O[C@H](CO)[C@@H](O)[C@H](O)[C@H]2O[C@H]2C[C@](C)(N)[C@H](O)[C@H](C)O2)Oc2ccc(cc2Cl)[C@H]1O [VANCOMYCIN]	1.56 µg/mL (≈ 1.08 µM)	> 64 µg/mL	> 64 µg/mL	1 µg/mL (≈ 0.69 µM)	> 64 µg/mL	2 µg/mL (≈ 1.38 µM)	1 µg/mL (≈ 0.69 µM)	2 µg/mL (≈ 1.38 µM)	> 64 µg/mL	16 µg/mL (≈ 11 µM)	> 64 µg/mL	1 µg/mL (≈ 0.69 µM)	64 µg/mL (≈ 44.2 µM)	> 64 µg/mL	1 µg/mL (≈ 0.69 µM)	1 µg/mL (≈ 0.69 µM)	1 µg/mL (≈ 0.69 µM)	2 µg/mL (≈ 1.38 µM)	–
CCCCCCCOc1ccc(-c2nc(C)c(-c3ccnc(NC(=N)NC)n3)s2)cc1	> 50 µg/mL	–	–	–	–	–	–	–	–	–	–	–	–	–	–	–	–	–	–
CCCCCCCCOc1ccc(-c2nc(C)c(-c3ccnc(NC(=N)N(C)C)n3)s2)cc1	1.56 µg/mL (≈ 3.34 µM)	8 µg/mL (≈ 17.1 µM)	8 µg/mL (≈ 17.1 µM)	16 µg/mL (≈ 34.3 µM)	16 µg/mL (≈ 34.3 µM)	8 µg/mL (≈ 17.1 µM)	16 µg/mL (≈ 34.3 µM)	16 µg/mL (≈ 34.3 µM)	16 µg/mL (≈ 34.3 µM)	32 µg/mL (≈ 68.6 µM)	16 µg/mL (≈ 34.3 µM)	16 µg/mL (≈ 34.3 µM)	32 µg/mL (≈ 68.6 µM)	16 µg/mL (≈ 34.3 µM)	16 µg/mL (≈ 34.3 µM)	4 µg/mL (≈ 8.57 µM)	16 µg/mL (≈ 34.3 µM)	16 µg/mL (≈ 34.3 µM)	MBC (Streptococcus pneumoniae [19]): 16 µg/mL (≈ 34.3 µM); MIC (Staphylococcus aureus [20]): 16 µg/mL (≈ 34.3 µM); MIC (Staphylococcus aureus [21]): 8 to 16 µg/mL (≈ 17.1 to 34.3 µM); MIC [22]: 4 µg/mL (≈ 8.57 µM); MIC (Staphylococcus aureus [23]): 16 µg/mL (≈ 34.3 µM); Activity (Caco-2): Non-Toxic; MBC (Listeria monocytogenes [24]): 8 µg/mL (≈ 17.1 µM); MIC (Staphylococcus aureus [25]): 8 µg/mL (≈ 17.1 µM); MBC [26]: 8 µg/mL (≈ 17.1 µM); MBC (Streptococcus pneumoniae [27]): 32 µg/mL (≈ 68.6 µM)
CCCCCCCCOc1ccc(-c2nc(C)c(-c3ccnc(NC(=N)N)n3)s2)cc1	1.56 µg/mL (≈ 3.56 µM)	–	–	–	–	–	–	–	–	–	–	–	–	–	–	–	–	–	–
CCCCCCCCOc1ccc(-c2nc(C)c(-c3ccnc(NC(=N)N4CCN(C)CC4)n3)s2)cc1	0.78 µg/mL (≈ 1.5 µM)	16 µg/mL (≈ 30.7 µM)	16 µg/mL (≈ 30.7 µM)	32 µg/mL (≈ 61.3 µM)	16 µg/mL (≈ 30.7 µM)	> 64 µg/mL	16 µg/mL (≈ 30.7 µM)	16 µg/mL (≈ 30.7 µM)	8 µg/mL (≈ 15.3 µM)	16 µg/mL (≈ 30.7 µM)	16 µg/mL (≈ 30.7 µM)	16 µg/mL (≈ 30.7 µM)	64 µg/mL (≈ 123 µM)	8 µg/mL (≈ 15.3 µM)	32 µg/mL (≈ 61.3 µM)	4 µg/mL (≈ 7.67 µM)	16 µg/mL (≈ 30.7 µM)	32 µg/mL (≈ 61.3 µM)	MBC (Streptococcus pneumoniae [19]): 32 µg/mL (≈ 61.3 µM); MIC (Staphylococcus aureus [20]): 16 µg/mL (≈ 30.7 µM); MIC (Staphylococcus aureus [21]): 16 to 32 µg/mL (≈ 30.7 to 61.3 µM); MIC [22]: 8 µg/mL (≈ 15.3 µM); MIC (Staphylococcus aureus [23]): 16 µg/mL (≈ 30.7 µM); Activity (Caco-2): Non-Toxic; MBC (Listeria monocytogenes [24]): 8 µg/mL (≈ 15.3 µM); MIC (Staphylococcus aureus [25]): 16 µg/mL (≈ 30.7 µM); MBC [26]: 8 µg/mL (≈ 15.3 µM); MBC (Streptococcus pneumoniae [27]): 32 µg/mL (≈ 61.3 µM)
CCCCCCCCOc1ccc(-c2nc(C)c(-c3ccnc(NC)n3)s2)cc1	> 50 µg/mL	–	–	–	–	–	–	–	–	–	–	–	–	–	–	–	–	–	–
CCCCCCCOc1ccc(-c2nc(C)c(-c3ccnc(NN4CCOCC4)n3)s2)cc1	25 µg/mL (≈ 53.5 µM)	–	–	–	–	–	–	–	–	–	–	–	–	–	–	–	–	–	–
CCCCCCCOc1ccc(-c2nc(C)c(-c3ccnc(N)n3)s2)cc1	> 50 µg/mL	–	–	–	–	–	–	–	–	–	–	–	–	–	–	–	–	–	–
CCCCCCCOc1ccc(-c2nc(C)c(-c3ccnc(NC(=N)N)n3)s2)cc1	1.56 µg/mL (≈ 3.67 µM)	–	–	–	–	–	–	–	–	–	–	–	–	–	–	–	–	–	–
